# Laboratory results: patent publication US20250002450A1, “CATIONIC STEROID COMPOUNDS, METHOD OF OBTAINING THEREOF, FORMULATIONS COMPRISING THEREOF AND THEIR USES” (UNIVERSIDADE DO PORTO, priority 2021, published 2025)
# Key:
# E. coli ATCC 25922 = assay: Enzymatic/metabolic activity, MTT assay; type: cell-based, Escherichia coli
# Procedure: To determine whether compound 1 could also affect enzymatic activity, 2-(4,5-dimethyl-2-thiazolyl)-3,5-diphenyl-2H-tetrazolium bromide (MTT) assay was performed. This assay can also be used as an indirect measure of cellular viability, as tetrazolium salts are reduced to purple formazan by metabolically active cells. E. coli ATCC 25922 cells were treated with compound 1 and COL and AMP were used as controls, as described above. Measurements were made at 0, 1, and 18 h.
# Enzymatic activity was evaluated by the MTT assay, as previously described, with some modifications. Cell suspensions of E. coli ATCC 25922 were prepared as described above, as well as test conditions and controls. At each time point (0, 1, and 18 h), 500 μL aliquots were collected, centrifuged at 3500 rpm for 10 min, the supernatant was removed, and 300 μL of MTT solution (0.5 mg/mL in CAMHB, at 36 degrees C.) (Thiazolyl Blue Tetrazolium Bromide, Alfa Aesar, Ward Hill, MA, USA) were added. After a 30 min incubation at 36° C., the insoluble formazan product resulting from the conversion of MTT by metabolically active cells was solubilized with 300 μL of DMSO. 100 μL of each sample were transferred in duplicate to the wells of a microtiter plate and the extent of the reduction of MTT to formazan was quantified by measuring the absorbance at 570 nm (Thermo Scientific Multiskan® EX, Thermo Fisher Scientific, Waltham, MA, USA). Three independent assays were performed in duplicate, and results are expressed as a percentage of untreated control.
# C. albicans ATCC 10231 [1] = assay: Time-kill kinetics; type: cell-based, Candida albicans
# Procedure: As mentioned for antibacterial activity, time-kill plots allow the evaluation of killing of a microbial isolate over time and establishing how much exposure time is needed in order to achieve a fungicidal effect, which is usually defined by ≥99.9% killing of the initial inoculum and is determined by a 3-log10-unit decrease in CFU/mL. […] Time-kill kinetics of compound 1 were evaluated for C. albicans ATCC 10231.
# Determination of killing of C. albicans ATCC 10231 over time was carried out using the time-kill method, as previously described. This assay was performed for concentrations of compound 1 ranging between 64 and 8 μg/mL. Colonies from 24 h cultures in SDA were suspended in sterile saline and adjusted to 0.5 McFarland. An aliquot of this suspension was then added to each tube of RPMI alone (control) or RPMI plus an appropriate amount of compound 1, to give an inoculum of approximately 10^5 CFU/mL in a final volume of 10 mL. Tubes were incubated at 36° C. in a water bath with shaking and vortexed prior to removing each sample for the determination of colony counts. At predetermined time points (30 min, 1, 1.5, 2, 3, 4, 6, 8, and 12 h), 100 μL aliquots were aseptically removed from each tube, serially diluted in sterile saline, and spread on SDA plates. Colony counts were determined following incubation at 36° C. for 24 to 48 h and log10 CFU/mL was plotted against time. At least three independent experiments were performed.
# C. albicans ATCC 10231 [2] = assay: Biofilm formation (crystal violet); type: cell-based, Candida albicans; conditions: 2×MIC to ¼×MIC (128-16 μg/mL), 48 h
# Procedure: The effect of compound 1 on biofilm formation of C. albicans ATCC 10231 was evaluated through quantification of total biomass by crystal violet staining. […] A control with appropriate concentration of DMSO, as well as a negative control (RPMI alone), were included. Sterile 96-well flat-bottomed untreated polystyrene microtiter plates were used. After a 48 h incubation at 35° C., the biofilms were stained with 1% (v/v) crystal violet for 5 min. The stain was solubilized with 33% (v/v) acetic acid and the biofilm biomass was quantified by measuring the absorbance of each sample at 570 nm in a microplate reader (Thermo Scientific Multiskan® EX, Thermo Fisher Scientific, Waltham, MA, USA). The background absorbance (RPMI without inoculum) was subtracted, and the data are presented as percentage of control. Three independent assays were performed in triplicate for each experimental condition.
# C. albicans ATCC 10231 [3] = assay: Checkerboard synergy with antifungal drugs; type: cell-based, Candida albicans
# Procedure: According to the consensus interpretation of FICI values, FICI≤0.5 is interpreted as ‘synergy’. […] Inoculum and compound solutions were prepared as described for antifungal susceptibility testing. Fractional inhibitory concentrations (FIC) were calculated as follows: FIC of compound=MIC of compound combined with antifungal/MIC compound alone, and FIC antifungal=MIC of antifungal combined with compound/MIC of antifungal alone. The FIC index (FICI) was calculated as the sum of each FIC and interpreted as follows: FICI≤0.5, ‘synergy’; 0.5<FICI≤4, ‘no interaction’; FICI>4, ‘antagonism’. At least three independent experiments were performed and mean FICI was calculated.
# C. albicans ATCC 10231 [4] = assay: Ergosterol binding assay; type: cell-based, Candida albicans; conditions: 400 μg/mL ergosterol
# Procedure: Ceragenins have been described to interact with the lipophilic environment of microbial membranes and ergosterol is the major sterol component of fungal plasma membrane, and the target of several antifungals. As such, in order to evaluate the ability of compound 1 to bind to membrane ergosterol of C. albicans ATCC 10231, MICs were determined in the absence and presence of exogenous ergosterol ([FIG. 10]). If the tested compound has the ability to perturb membrane integrity by binding to ergosterol, is expected that, in the presence of exogenous ergosterol, the compound binds to it, decreasing the amount of compound available to bind to membrane ergosterol, therefore increasing the MIC. Amphotericin B was used as a positive control for this assay and MICs obtained were 8 times higher in the presence of 400 μg/mL of exogenous ergosterol than in its absence (2 to 16 μg/mL, data not shown). […] The ability of compound 1 to bind to membrane ergosterol of C. albicans ATCC 10231, was evaluated by the ergosterol binding assay, as previously described. Briefly, MICs of compound 1 were determined by broth microdilution, as described above, in the absence and presence of ergosterol (Sigma-Aldrich, St. Louis, MO, USA) at a final concentration of 400 μg/mL. Ergosterol was prepared immediately before being added to the plates, by maceration and dissolution in DMSO. The formed emulsion was then homogenized, heated to increase solubility, and diluted in RPMI. Amphotericin B was used as positive control. Plates were incubated at 35° C. for 48 h and MICs were determined as described above. At least two independent assays were performed.
smiles,measurement,setting,value
"C[C@H](CCC(=O)NCCN)[C@H]1CC[C@H]2[C@@H]3CC[C@@H]4C[C@H](O)CC[C@]4(C)[C@H]3C[C@H](O)[C@]12C [Compound 1, (R)—N-(2-aminoethyl)-4-((3R,5R,8R,9S,10S,12S,13R,14S,17R)-3,12-dihydroxy-10,13-dimethylhexadecahydro-1H-cyclopenta[a]phenanthren-17-yl) pentanamida]",metabolic activity (MTT) vs untreated control,"E. coli ATCC 25922; 32 μg/mL, after 1 and 18 h",decrease in enzymatic activity
same,metabolic activity (MTT) vs untreated control,"E. coli ATCC 25922; 64 μg/mL, 0, 1, 18 h",significantly reduced at all time points
same,exposure time to fungicidal effect (≥99.9% killing),C. albicans ATCC 10231 [1]; 64 μg/mL (MIC),approximately 4 h
same,additional time to produce an additional 1-log10-unit decrease in CFU/mL,"C. albicans ATCC 10231 [1]; 64 μg/mL, after the first 2 h",10 h
same,decrease in CFU/mL each hour,"C. albicans ATCC 10231 [1]; 64 μg/mL, until 2 h of exposure",1 log10-unit
same,type of killing (in words),C. albicans ATCC 10231 [1]; 64-8 μg/mL,concentration-dependent killing
same,biofilm formation (in words),C. albicans ATCC 10231 [2],significant inhibition of biofilm formation
same,effect on trailing caused by fluconazole at its MIC (in words),"C. albicans ATCC 10231 [3]; 16 μg/mL of compound 1 (¼×MIC), fluconazole 2 μg/mL",eliminated trailing
same,fractional inhibitory concentration index (FICI),C. albicans ATCC 10231 [3]; with amphotericin B,≤ 0.5
same,fractional inhibitory concentration index (FICI),C. albicans ATCC 10231 [3]; with fluconazole,≤ 0.5
same,effect of exogenous ergosterol on MICs (in words),C. albicans ATCC 10231 [4],unaffected
